Series [1] in a line: Physical stability analysis of sesquifumaric acid salt forms (drying, heating). Format: physicochemical.
The conditions of series [2]: from 5 to 95% RH. The protocol:
Moisture sorption/desorption data were collected on a VTI SGA-100 Vapor Sorption Analyzer. NaCl and PVP were used as calibration standards. Samples were not dried prior to analysis. Sorption and desorption data were collected over a range from 5% to 95% RH at 10% RH increments under a nitrogen purge. The equilibrium criterion used for analysis was less than 0.0100% weight change in 5 minutes with a maximum equilibration time of 3 hours. Data were not corrected for the initial moisture content of the samples.

For the compound `CC(C)N(C(=O)c1cc(F)ccc1Oc1cncnc1N1CC2(CCN(CC3CCC(NS(C)(=O)=O)CC3)CC2)C1)C(C)C.CC(C)N(C(=O)c1cc(F)ccc1Oc1cncnc1N1CC2(CCN(CC3CCC(NS(C)(=O)=O)CC3)CC2)C1)C(C)C.O.O.O=C(O)/C=C/C(=O)O.O=C(O)/C=C/C(=O)O.O=C(O)/C=C/C(=O)O` (stereo not shown) [Form A, 5-fluoro-N,N-diisopropyl-2-((4-(7-(((1r,4r)-4-(methylsulfonamido)cyclohexyl)methyl)-2,7-diazaspiro[3.5]nonan-2-yl)pyrimidin-5-yl)oxy)benzamide sesquifumaric acid salt monohydrate], the “Observation (weight change)” value in series [1] (70° C. vacuum 3 days) and in series [1] (ambient vacuum 3 days) was “no weight change” in each case. In addition, the “Result (solid form after physical stability stress)” value is “Form A + peaks” in series [1] (70° C. vacuum 3 days); “Form A” in series [1] (95° C., under N2, 2 days); “Form A” in series [1] (105° C. 3 days); “Form A” in series [1] (ambient vacuum 3 days). Moreover, the “Observation (LOD)” value in series [1] (105° C. 3 days) is recorded as 20% LOD. The “Form change in variable temperature (VT)-XRPD” value in series [1] (heating, XRPD pattern at 165° C.) is given as “No form change observed”. Further, in series [1] (vacuum drying or heating), the “Changes upon vacuum drying or heating” value is “No changes”. The same compound came in with a DVS weight gain in series [2] of 0.92%.
